Laboratory results as given in patent publication US12122816B2, “Long acting peptide tyrosine tyrosine (PYY) analogs and methods of use” (Intarcia Therapeutics, Inc., priority 2020, dated 2024).
Starred links: 1 amine or outer side, 2 acyl side, 3 side chain; linkers in the order of their positions; H or OH if unused. Positions of bridges follow the written chain, without caps; N, C: chain ends. Residues, ends and D or L forms follow the SMILES beside them. Groups on a side chain read outwards from the residue. No end group written: not given here. *: point of attachment. C19 diacid = O=C(O)CCCCCCCCCCCCCCCCCC(=O)*; γGlu = O=C(O)[C@H](CCC(=O)[*:2])N[*:1]

Assays:
[1] = cited from earlier work
human Y5 receptor = biological target: T1, human Y5 receptor (Homo sapiens, UniProt Q15761); test: NPY receptor functional assay (cAMP, HEK-CNG cells, ACTOne membrane potential dye); type: cell-based; conditions: NPY5R pEC50, HEK-CNG cells; standard NPY; species (human or rat) not given
T1 sequence (Q15761 1-445): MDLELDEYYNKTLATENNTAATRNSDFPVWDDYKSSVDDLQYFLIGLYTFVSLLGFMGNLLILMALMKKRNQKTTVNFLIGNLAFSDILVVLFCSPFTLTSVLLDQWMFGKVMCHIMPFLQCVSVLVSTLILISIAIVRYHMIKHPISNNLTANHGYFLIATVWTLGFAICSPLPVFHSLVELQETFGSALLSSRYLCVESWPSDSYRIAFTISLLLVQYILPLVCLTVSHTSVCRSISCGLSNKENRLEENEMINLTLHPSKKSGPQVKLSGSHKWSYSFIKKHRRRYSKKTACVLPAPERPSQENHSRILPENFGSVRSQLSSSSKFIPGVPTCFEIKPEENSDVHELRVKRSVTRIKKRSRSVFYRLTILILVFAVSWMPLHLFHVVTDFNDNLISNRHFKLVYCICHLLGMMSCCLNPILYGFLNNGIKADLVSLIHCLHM
Method in brief: (§1)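 HEK-CNG cells stably expressing each human receptor; peptides added in triplicate for 50 minutes at room temperature, with agonism read as decreased isoproterenol-induced membrane potential dye signal (final/initial read).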

human Y2 receptor = biological target: T2, human Y2 receptor (Homo sapiens, UniProt P49146); test: as above; type: cell-based; conditions: NPY2R pEC50, HEK-CNG cells; standard PYY(3-36); species (human or rat) not given
T2 sequence (P49146 1-381): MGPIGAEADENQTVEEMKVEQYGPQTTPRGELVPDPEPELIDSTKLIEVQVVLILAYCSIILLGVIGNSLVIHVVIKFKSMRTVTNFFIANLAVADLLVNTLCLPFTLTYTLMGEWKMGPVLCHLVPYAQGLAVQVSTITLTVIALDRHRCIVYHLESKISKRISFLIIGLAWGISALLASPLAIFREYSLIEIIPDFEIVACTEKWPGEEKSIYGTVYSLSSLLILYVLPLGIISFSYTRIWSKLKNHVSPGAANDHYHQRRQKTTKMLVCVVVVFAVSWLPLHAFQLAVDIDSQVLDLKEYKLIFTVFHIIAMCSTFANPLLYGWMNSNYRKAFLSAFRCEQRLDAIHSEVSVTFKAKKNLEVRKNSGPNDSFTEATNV
Method in brief: as §1

[2] = Solubility in DI water at room temperature (visual inspection); type: physicochemical; conditions: TFA salt form
Procedure: The analog polypeptides described herein were tested for solubility in saline or in aqueous (DI water) at room temperature. Samples were visually inspected for clarity of the sample, any appearance of turbidity or haziness.

[3] = Stability in water or saline (1 mg/ml) at 37° C., purity by LC/MS and HPLC; type: physicochemical; conditions: TFA salt form
human Y1 receptor = biological target: T3, human Y1 receptor (Homo sapiens, UniProt P25929); test: NPY receptor functional assay (cAMP, HEK-CNG cells, ACTOne membrane potential dye); type: cell-based
T3 sequence (P25929 1-384): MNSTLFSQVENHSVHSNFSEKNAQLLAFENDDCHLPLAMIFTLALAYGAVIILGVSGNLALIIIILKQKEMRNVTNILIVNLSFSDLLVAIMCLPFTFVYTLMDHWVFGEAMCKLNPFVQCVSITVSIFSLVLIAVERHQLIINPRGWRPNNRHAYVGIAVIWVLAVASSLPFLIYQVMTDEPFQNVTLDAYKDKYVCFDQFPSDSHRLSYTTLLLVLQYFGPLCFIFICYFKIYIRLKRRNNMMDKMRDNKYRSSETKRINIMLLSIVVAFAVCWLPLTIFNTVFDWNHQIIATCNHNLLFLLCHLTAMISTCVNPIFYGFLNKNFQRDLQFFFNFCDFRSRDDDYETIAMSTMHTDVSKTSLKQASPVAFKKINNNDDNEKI
Source text: The NPY family of G-protein coupled receptors include Y1, Y2, Y4, and Y5 in humans and rats. […] Following agonist binding, the receptor-G protein complex activates a downstream intracellular signaling cascade which leads to inhibition of adenylate cyclase and a reduction in intracellular cAMP levels.
HEK-CNG cells stably expressing the human or rat Y1, Y2, Y4 or Y5 receptors (Codex Biosolutions) were used to characterize the functional potency of peptide agonists using the ActOne™ membrane potential dye kit (Codex Biosolutions). In addition to each NPY receptor, each cell line encodes a proprietary exogenous Cyclic Nucleotide-Gated (CNG) channel (Codex Biosolutions). The channel is activated by elevated intracellular levels of cAMP, resulting in ion flux and cell membrane depolarization which can be detected with a calcium sensitive dye or fluorescent membrane potential (MP) dye. Cells were carried in growth media containing 90% DMEM, 10% FBS, 250 mcg/mL G418 and 1 mcg/mL puromycin for no more than 15 passages.
Prior to testing, cells were counted and dispensed at 14,000 cells per well (Y1, Y4 and Y5) or 28,000 cells per well (Y2) into black 384 well Poly-D-Lysine plates at 20 mcL per well. Covered plates were then incubated at room temperature for 30 minutes followed by an overnight incubation at 37° C. in 5% C02. The following day, media was removed and wells were washed once with 40 mcL Dulbecco's phosphate buffered saline. […] Ten microliters of experimental peptide or peptide standard was added in triplicate to wells and incubated for 50 minutes at room temperature in the dark. Following this incubation step, plates were read again as before (final read).
NPY receptor activation, leading to a reduction in intracellular cAMP levels, is detected as a decrease in isoproteranol induced fluorescent signal. Peptide standard and experimental values were initially transformed in excel using the formula: final read/initial read. […] Normalized data was analyzed from triplicate tests and used to estimate the EC50 for each test peptide on each receptor. Data was fit in GraphPad Prism software (v8.2.1) using a 3-parameter logistic curve model: Y=Bottom+(Top−Bottom)/(1+10^((LogEC50−X))). EC50 values were converted to pEC50 values using the formula: pEC50=−Log(EC50).

For “human amylin: 37-residue polypeptide hormone co-secreted with insulin from pancreatic β-cells (KCNTATCATQRLANFLVHSSNNFGAILSSTNVGSNTY; not fully specified (C-terminus, bridges); cysteine pairing not given here; UniProt P10997 34-70, looked up)”, the half-life in serum [1] is listed as “about 13 minutes”.
Work on CC(C)C[C@H](NC(=O)[C@H](CC(=O)O)NC(=O)[C@H](CCCCN)NC(=O)[C@H](Cc1ccc(O)cc1)NC(=O)[C@H](Cc1ccc(O)cc1)NC(=O)[C@H](CCCNC(=N)N)NC(=O)[C@H](CC(N)=O)NC(=O)[C@H](Cc1c[nH]c2ccccc12)NC(=O)[C@H](CCC(=O)O)NC(=O)[C@H](CCC(=O)O)NC(=O)[C@@H]1CCCN1C(=O)[C@H](CO)NC(=O)[C@H](C)NC(=O)[C@H](CC(=O)O)NC(=O)[C@H](CCCCNC(=O)CC[C@H](NC(=O)CC[C@H](NC(=O)CCCCCCCCCCCCCCCCCCC(=O)O)C(=O)O)C(=O)O)NC(=O)CNC(=O)[C@@H]1CCCN1C(=O)[C@H](CCCCN)NC(=O)[C@H](CCC(=O)O)NC(=O)[C@@H]1CCCN1C(=O)[C@H](CCCCN)NC(=O)[C@@H]1CCCN1)C(=O)N[C@@H](CCCNC(=N)N)C(=O)N[C@@H](Cc1c[nH]cn1)C(=O)N[C@@H](Cc1ccc(O)cc1)C(=O)N[C@@H](CC(C)C)C(=O)N[C@@H](CC(N)=O)C(=O)N[C@@H](Cc1c[nH]c2ccccc12)C(=O)N[C@@H](CC(C)C)C(=O)N[C@H](C(=O)N[C@@H](CCCNC(=N)N)C(=O)N[C@@H](CCC(N)=O)C(=O)N[C@@H](CCCNC(=N)N)C(=O)N[C@@H](Cc1ccccc1)C(N)=O)[C@@H](C)O [Compound A19] yielded an EC50 (human Y5 receptor) of 2 nM, an EC50 (human Y2 receptor) of 0.0316 nM and a solubility ([2]; DI water, read-out: Solubility (in Water, RT)) of 59 mg/mL. The “Stability (37° C./RT, T0: Mar. 25, 2020)” value [3] was 88.8.
For CC(C)C[C@H](NC(=O)[C@H](CC(=O)O)NC(=O)[C@@H]1CCCCNC(=O)CC[C@H](NC(=O)[C@H](Cc2c[nH]c3ccccc23)NC(=O)[C@H](CCC(=O)O)NC(=O)[C@H](CCCCN)NC(=O)[C@@H]2CCCN2C(=O)[C@H](CO)NC(=O)[C@H](C)NC(=O)[C@H](CC(=O)O)NC(=O)[C@H](CCCCNC(=O)CC[C@H](NC(=O)CC[C@H](NC(=O)CCCCCCCCCCCCCCCCCC(=O)O)C(=O)O)C(=O)O)NC(=O)CNC(=O)[C@@H]2CCCN2C(=O)[C@H](CCCCN)NC(=O)[C@H](CCC(=O)O)NC(=O)[C@@H]2CCCN2C(=O)[C@H](CCCCN)NC(=O)[C@@H]2CCCN2)C(=O)N[C@@H](CCCNC(=N)N)C(=O)N[C@@H](Cc2ccc(O)cc2)C(=O)N[C@@H](Cc2ccc(O)cc2)C(=O)N1)C(=O)N[C@@H](CCCNC(=N)N)C(=O)N[C@@H](Cc1c[nH]cn1)C(=O)N[C@@H](Cc1ccc(O)cc1)C(=O)N[C@@H](CC(C)C)C(=O)N[C@@H](CC(N)=O)C(=O)N[C@@H](Cc1c[nH]c2ccccc12)C(=O)N[C@@H](CC(C)C)C(=O)N[C@H](C(=O)N[C@@H](CCCNC(=N)N)C(=O)N[C@@H](CCC(N)=O)C(=O)N[C@@H](CCCNC(=N)N)C(=O)N[C@@H](Cc1ccccc1)C(N)=O)[C@@H](C)O [Compound A39] (H-PKPEKPGK([γGlu-γGlu-C19 diacid])DASPKEWERYYKDLRHYLNWLTRQRF-NH2; lactam 16-20; N-terminus assumed), the “Solubility (in Water, RT)” value [2] was 16 mg/mL and the “Stability (37° C./RT, T0: Mar. 25, 2020)” value [3] was 95.9.
For CC(C)C[C@H](NC(=O)[C@H](CC(=O)O)NC(=O)[C@@H]1CCCCNC(=O)C[C@H](NC(=O)[C@H](Cc2c[nH]c3ccccc23)NC(=O)[C@H](CCC(=O)O)NC(=O)[C@H](CCCCN)NC(=O)[C@@H]2CCCN2C(=O)[C@H](CO)NC(=O)[C@H](C)NC(=O)[C@H](CC(=O)O)NC(=O)[C@H](CCCCNC(=O)CC[C@H](NC(=O)CC[C@H](NC(=O)CCCCCCCCCCCCCCCCCC(=O)O)C(=O)O)C(=O)O)NC(=O)CNC(=O)[C@@H]2CCCN2C(=O)[C@H](CCCCN)NC(=O)[C@H](CCC(=O)O)NC(=O)[C@@H]2CCCN2C(=O)[C@H](CCCCN)NC(=O)[C@@H]2CCCN2)C(=O)N[C@@H](CCCNC(=N)N)C(=O)N[C@@H](Cc2ccc(O)cc2)C(=O)N[C@@H](Cc2ccc(O)cc2)C(=O)N1)C(=O)N[C@@H](CCCNC(=N)N)C(=O)N[C@@H](Cc1c[nH]cn1)C(=O)N[C@@H](Cc1ccc(O)cc1)C(=O)N[C@@H](CC(C)C)C(=O)N[C@@H](CC(N)=O)C(=O)N[C@@H](Cc1c[nH]c2ccccc12)C(=O)N[C@@H](CC(C)C)C(=O)N[C@H](C(=O)N[C@@H](CCCNC(=N)N)C(=O)N[C@@H](CCC(N)=O)C(=O)N[C@@H](CCCNC(=N)N)C(=O)N[C@@H](Cc1ccccc1)C(N)=O)[C@@H](C)O [Compound A40], the “Solubility (in Water, RT)” value [2] was 27 mg/mL and the “Stability (37° C./RT, T0: Mar. 25, 2020)” value [3] was 98.1.
CC(C)C[C@H](NC(=O)[C@H](Cc1ccc(O)cc1)NC(=O)[C@H](Cc1c[nH]cn1)NC(=O)[C@H](CCCNC(=N)N)NC(=O)[C@H](CC(C)C)NC(=O)[C@H](CC(=O)O)NC(=O)[C@@H](CCCCNC(=O)CC[C@H](NC(=O)COCCOCCNC(=O)COCCOCCNC(=O)CC[C@H](NC(=O)CCCCCCCCCCCCCCCCCCC(=O)O)C(=O)O)C(=O)O)NC(=O)[C@H](Cc1ccc(O)cc1)NC(=O)[C@H](Cc1ccc(O)cc1)NC(=O)[C@H](CCCNC(=N)N)NC(=O)[C@H](CC(N)=O)NC(=O)[C@H](Cc1c[nH]c2ccccc12)NC(=O)[C@H](CCC(=O)O)NC(=O)[C@H](CCC(=O)O)NC(=O)[C@@H]1CCCN1C(=O)[C@H](CO)NC(=O)[C@H](C)NC(=O)[C@H](CC(=O)O)NC(=O)[C@H](CCCCN)NC(=O)CNC(=O)[C@@H]1CCCN1C(=O)[C@H](C)NC(=O)[C@H](CCC(=O)O)NC(=O)[C@@H]1CCCN1C(=O)[C@H](CCCCN)NC(=O)[C@@H]1CCCN1)C(=O)N[C@@H](CC(N)=O)C(=O)N[C@@H](Cc1c[nH]c2ccccc12)C(=O)N[C@@H](CC(C)C)C(=O)N[C@H](C(=O)N[C@@H](CCCNC(=N)N)C(=O)N[C@@H](CCC(N)=O)C(=O)N[C@@H](CCCNC(=N)N)C(=O)N[C@@H](Cc1ccccc1)C(N)=O)[C@@H](C)O [Compound A65] gave an EC50 (human Y5 receptor) of 2.51 nM, an EC50 (human Y2 receptor) of 0.0631 nM and an EC50 (human Y1 receptor) of 10 nM.
